# Measurements: patent US20110230476A1, “PI3 KINASE INHIBITORS AND USES THEREOF” (AVILA THERAPEUTICS, INC., priority 2009, published 2011)
# Key:
# Format in all cases: cell-based
# SKOV3 cells = assay: GI50 determinations in SKOV3 cells; settings: Homo sapiens, SK-OV-3
# HCT116 cells = assay: HCT-116 cell proliferation assay; settings: Homo sapiens, 72 hours, Cell Titer Glo
# Protocol: HCT-116 Cell Proliferation Assay
# (§1) For the HCT116 Proliferation Assay, 3000 cells per well were plated in Growth Media (DMEM, 10% FBS, 1% 1-glutamine, 1% penicillin/streptomycin) in 96 well plates. The following day, compounds were added to duplicate wells at concentrations of 10 uM and 3-fold dilutions down to 40 nM. The plates were returned to the incubator for 72 hours and then the assays were developed using Cell Titer Glo (Promega, Madison, Wis.) according to manufacturer's instructions.
# SK-OV-3 cells = assay: SK-OV-3 cell proliferation assay; settings: Homo sapiens; SK-OV-3 proliferation, 72 hours, Cell Titer Glo
# Protocol: SK-OV-3 Cell Proliferation Assay
# as §1, with “SK-OV-3 proliferation” for “HCT116 Proliferation”, “5000” for “3000”
EC50 (HCT116 cells),EC50 (SK-OV-3 cells),Structure (SMILES),"GI50 (SKOV3 cells; SKOV3 cells, 96 hours, Cell Titer Glo)","GI50 (SKOV3 cells; Table 19, assay not given, classes agree with Table 26)"
,,"CC(C)=CC(=O)CCC(=O)N1CCN(Cc2cc3nc(-c4cccc5[nH]ncc45)nc(N4CCOCC4)c3s2)CC1 [II-a-3, 1-(4-((2-(1H-indazol-4-yl)-4-morpholinothieno[3,2-d]pyrimidin-6-yl)methyl)piperazin-1-yl)-6-methylhept-5-ene-1,4-dione]",10 to 100 nM,10 to 100 nM
1 to 10 µM,100 to 1000 nM,"C/C=C/C(=O)CCC(=O)N1CCN(Cc2cc3nc(-c4cccc5[nH]ncc45)nc(N4CCOCC4)c3s2)CC1 [II-a-36, (E)-1-(4-((2-(1H-indazol-4-yl)-4-morpholinothieno[3,2-d]pyrimidin-6-yl)methyl)piperazin-1-yl)hept-5-ene-1,4-dione]",,
